“And” between values parts separate entries of the source, which are not always exact repeats. Equal entries are not always repeated. “Also recorded” adds a separate entry of the source. Structures can show the parent of a compound that is named as a salt. Where two headings read alike, the source gives them in different places.
What was measured:
[1] = Stability of C-esters of Troika acid (E-2) in water; format: physicochemical
[2] = Stability of DCHA+ salts 3 heated in different solvents (31P NMR); format: physicochemical; settings: for degraded at 3.5 h: water, read-out: conversion to phosphate
Experimental: Stability of DCHA^+ Salts 3 Heated in Different Solvents. 40 mg 3 (E or Z) was heated in 5 ml of alcohol mixture, H2 O or acetonitrile. Reaction progress was monitored by ^31 P NMR spectroscopy.

[3] = pH dependence of the stability of DCHA+ salts 3 in D2O (31P NMR); format: physicochemical; settings: 22° C.; for stability in D2O: 24 h, pH 2-8; for remaining at 24 h / Z isomer formed from E-3 (% int, 31P NMR) / F, fragmentation product (HO)2P(O)OH from E-3 (% int) / H, hydrolysis product 4 from E-3 (% int) / E isomer formed from Z-3 (% int, 31P NMR) / F, fragmentation product (HO)2P(O)CN from Z-3 (% int) / H, hydrolysis product 4 from Z-3 (% int): t = 24 h
Experimental: pH Dependence of the Stability of DCHA^+ Salts 3. These experiments were carried out in 5 mm glass NMR tubes in D2 O at 22° C., concentration of 3 0.1% (w/v).

[4] = Alkaline hydrolysis of E-3 and Z-3 to salts 4; format: physicochemical; settings: for time to complete hydrolysis: NaOH in D2O; for time of alkaline hydrolysis: aq. NaOH, 25° C., pH 13-14
Experimental: In an additional aspect of the present invention, C-alkyl esters of 3 can be stable under physiological conditions but can be reactive under more vigorous conditions. The stability of the parent Troika acids in H2 O were analyzed. Alkaline hydrolysis by methods known by those skilled in the art of E-3 and Z-3 (preferably, aq. NaOH, at a temperature of 25° C., at pH 13-14) can give the corresponding sodium salts E-4 and Z-4, the Z ester reacting much more rapidly (1 h vs. 70 h for E-3). Both salts 4 can be quite stable at high pH, typically, at pH values greater than 10, and room temperature, but at about pH 6 facile stereospecific fragmentations can be observed. […] The transformation of anti α-keto acid oximes to nitriles in aqueous solution at 40-100°C. is well known to those skilled in the art, but the corresponding process giving a phosphononitrile from a phosphonate α-oxime, observed with Z-4, was unexpected. Furthermore, an additional unexpected result in accordance with the present invention, was the finding that simple removal of the carboxy alkyl group of E-3 can create a reagent (E-4) capable of phosphorylation under mild aqueous conditions.
Synthesis of E4 & 5. 10 N NaOH ([…]) was added to E-3 (10 mg) in D2 O (0.4 ml) in an NMR tube, raising the pH to ~13. Hydrolysis was monitored by ^1 H and ^31 P NMR at room temperature. The reaction was complete in 3 d, giving a product identified by ^13 C and ^31 P NMR as E-4. ^13 C NMR (D2 O): δ (ppm) 161.8 (d, ^1 JPC =176 Hz, P--C=N), 175.4 (d, ^2 JPC =21 Hz, C=O); ^31 P NMR (D2 O, pH=13-14): δ (ppm) 2.8.
Acidification of Z-4 & 6. An analogous procedure for E-4 was carried out with the Z-3 isomer. Hydrolysis was complete within 1 h, yielding Z-4. […] (D2 O, pH=13-14): δ (ppm) 161.1 (d, ^1 JPC =127 Hz, P--C=N), […], 171.9 (d, ^2 JPC =17 Hz, C=O); ^31 P NMR (D2 O, pH=13-14): δ (ppm), 2.0.

[5] = for fragmentation product: about pH 6; for stability at high pH: pH greater than 10, room temperature
[6] = physchem
[7] = format: physicochemical
[8] = Photochemical activation (UV irradiation) of ONBCE-TA in Tris buffer; format: physicochemical
Experimental: Photochemical Activation Example. 5 mg of o-Nitrobenzyl (E)-dihydroxyphosphinyl)(hydroxyimino)acetate (ONBCE-TA) (prepared analogously to PNHDA) dissolved in 0.5 ml of 100 mM Tris buffer (pH 6.9) was irradiated in a Rayonet apparatus for 17 hr at 39° C. Phosphoric acid (the product from phosphorylation of solvent water) was obtained, yield 11%. The phosphorylation was not noticed in the absence of UV irradiation.

[9] = Exp 2, EtOH:i-PrOH 1:1, 79° C., 30 h
[10] = Exp 3, EtOH:t-BuOH 1:1, 79° C., 28 h
[11] = Exp 5, H2O (pH 6-7), 82-84° C., 4.0 h
[12] = Exp 8, H2O (pH 6-7), 82-84° C., 5.7 h

## COC(=O)/C(=N\O)P(=O)(O)O [E-2, methyl α-(hydroxyimino)phosphonoacetic acid]
[1]; H2O at physiological pH
  stability in water: stable
[1]; neutral and acidic pH, room temperature
  stability in water: stable at both acidic and neutral pH; also recorded: stable in water at room temperature
[2]; 1 d in refluxing AN, DCHA+ salt
  thermal stability: decomposed to polyphosphates

## COC(=O)/C(=N\O)P(=O)(O)O [E-3, Dicyclohexylammonium E-Methyl (Hydroxyimino)phosphonoacetate]
[2]; 5 h in 1:1 MeOH:i-PrOH, 72° C.
  stability on heating: unchanged
[2]; 30 h in 1:1 EtOH:i-PrOH, 79° C.
  Et phosphate and i-Pr phosphate formed: 84%
[2]; [9]
  Et-phosphate (yield, %): 48.3%
  Z-isomer (yield, %): 2.5%
  i-Pr-phosphate (yield, %): 35.8%
  phosphate (yield, %): 8.5%
  s.m. (%): 4.9%
[2]; [10]
  Et-phosphate (yield, %): 33.9%
  Z-isomer (yield, %): 29.4%
  phosphate (yield, %): 9.4%
  s.m. (%): 10.4%
  t-Bu-phosphate (yield, %): 16.9%
[2]; Exp 4, H2O (pH 4.0), 82-84° C., 3.5 h
  phosphate (yield, %): 100%
[2]; [11]
  phosphate (yield, %): 87.7%
  s.m. (%): 12.3%
[2]; Exp 6, MeCN, 81° C., 3.5 h
  phosphate (yield, %): 0.6%
  phosphononitrile (yield, %): 2.1%
  polyphosphates (yield, %): 80.9%
  s.m. (%): 16.4%
[2]; refluxing acetonitrile, several hours
  polyphosphate products: 81%
[2]; H2O, pH 4.0, 3.5 h, 82-84° C.
  degraded at 3.5 h: 100%
[2]; H2O, pH ~6.5, 3.5 h, 82-84° C.
  degraded at 3.5 h: 88%
[3]
  stability in D2O: stable
[3]; t = 0, pH 2.0, D2O
  E isomer (% int, 31P NMR): 100%
[3]; t = 0, pH 4.0, D2O
  E isomer (% int, 31P NMR): 100%
[3]; t = 0, pH 6.2, D2O
  E isomer (% int, 31P NMR): 100%
[3]; t = 0, pH 8.1, D2O
  E isomer (% int, 31P NMR): 100%
[3]; t = 0, pH 10.4, D2O
  E isomer (% int, 31P NMR): 100%
[3]; t = 0, pH 11.0, D2O
  E isomer (% int, 31P NMR): 100%
[3]; pH 2.0, D2O, read-out: E isomer (% int, 31P NMR)
  remaining at 24 h: 100%
[3]; pH 4.0, D2O, read-out: E isomer (% int, 31P NMR)
  remaining at 24 h: 100%
[3]; pH 6.2, D2O
  Z isomer formed from E-3 (% int, 31P NMR): 8.9%
[3]; pH 6.2, D2O, read-out: E isomer (% int, 31P NMR)
  remaining at 24 h: 91.1%
[3]; pH 8.1, D2O
  Z isomer formed from E-3 (% int, 31P NMR): 8.7%
[3]; pH 8.1, D2O, read-out: E isomer (% int, 31P NMR)
  remaining at 24 h: 91.3%
[3]; pH 10.4, D2O
  F, fragmentation product (HO)2P(O)OH from E-3 (% int): 1.2%
  H, hydrolysis product 4 from E-3 (% int): 6.9%
  Z isomer formed from E-3 (% int, 31P NMR): 3.0%
[3]; pH 10.4, D2O, read-out: E isomer (% int, 31P NMR)
  remaining at 24 h: 87.2%
[3]; pH 11.0, D2O
  F, fragmentation product (HO)2P(O)OH from E-3 (% int): 3.6%
  H, hydrolysis product 4 from E-3 (% int): 18.4%
  Z isomer formed from E-3 (% int, 31P NMR): 1.8%
[3]; pH 11.0, D2O, read-out: E isomer (% int, 31P NMR)
  remaining at 24 h: 76.2%
[4]; pH ~13, room temperature
  time to complete hydrolysis: 3 days
[4]
  time of alkaline hydrolysis: 70 h

## O=C(O)/C(=N\O)P(=O)(O)O [E-4]
[5]
  fragmentation product: exclusively orthophosphoric acid
  stability at high pH: quite stable
[6]; d2o, pH 5.7
  half-life: < 10 min
[6]; water, pH 6
  half-life: < 10 min

## COP(=O)(O)/C(=N/O)C(=O)O [E-13, Bis-DCHA^+ Salt (E-13) of (E)-(Hydroxyimino)-(hydroxymethoxyphosphinyl)acetic Acid]
[7]; 1:1 EtOH-t-BuOH
  ethyl and t-butyl methyl phosphate, total: 24%
[7]; heated in acetonitrile or EtOH
  phosphorylation products: 16-19%

## O=C(OCc1ccccc1[N+](=O)[O-])/C(=N\O)P(=O)(O)O [ONBCE-TA]
[8]; UV, 17 hr, 39° C., 100 mM Tris pH 6.9
  phosphoric acid formed (yield): 11%
[8]; absence of UV irradiation
  phosphorylation without irradiation: not noticed

## COC(=O)/C(=N/O)P(=O)(O)O [Z-3, Bis(dicyclohexylammonium) Z-Methyl (Hydroxyimino)phosphonoacetate]
[2]; 4 h in 1:1 EtOH:i-PrOH, 79° C.
  stability on heating: stable
[2]; [12]
  E-isomer (yield, %): 4.7% and 5%
  phosphate (yield, %): 27.8% and 28%
  phosphononitrile (yield, %): 13.4% and 13%
  s.m. (%): 54.1%
[2]; H2O, 5.7 h, 82-84° C.
  conversion: 46%
[3]
  stability in D2O: stable
[3]; t = 0, pH 2.0, D2O
  Z isomer (% int, 31P NMR): 100%
[3]; t = 0, pH 4.2, D2O
  Z isomer (% int, 31P NMR): 100%
[3]; t = 0, pH 6.7, D2O
  Z isomer (% int, 31P NMR): 100%
[3]; t = 0, pH 8.3, D2O
  Z isomer (% int, 31P NMR): 100%
[3]; t = 0, pH 10.4, D2O
  Z isomer (% int, 31P NMR): 100%
[3]; t = 0, pH 11.0, D2O
  Z isomer (% int, 31P NMR): 100%
[3]; pH 2.0, D2O, read-out: Z isomer (% int, 31P NMR)
  remaining at 24 h: 100%
[3]; pH 4.2, D2O, read-out: Z isomer (% int, 31P NMR)
  remaining at 24 h: 100%
[3]; pH 6.7, D2O
  E isomer formed from Z-3 (% int, 31P NMR): 5.0%
[3]; pH 6.7, D2O, read-out: Z isomer (% int, 31P NMR)
  remaining at 24 h: 95%
[3]; pH 8.3, D2O
  E isomer formed from Z-3 (% int, 31P NMR): 7.4%
[3]; pH 8.3, D2O, read-out: Z isomer (% int, 31P NMR)
  remaining at 24 h: 92.6%
[3]; pH 10.4, D2O
  E isomer formed from Z-3 (% int, 31P NMR): 8.5%
  F, fragmentation product (HO)2P(O)CN from Z-3 (% int): 1.7%
  H, hydrolysis product 4 from Z-3 (% int): 2.6%
[3]; pH 10.4, D2O, read-out: Z isomer (% int, 31P NMR)
  remaining at 24 h: 87.2%
[3]; pH 11.0, D2O
  F, fragmentation product (HO)2P(O)CN from Z-3 (% int): 9.2%
  H, hydrolysis product 4 from Z-3 (% int): 14.5%
[3]; pH 11.0, D2O, read-out: Z isomer (% int, 31P NMR)
  remaining at 24 h: 76.3%
[4]; room temperature
  time to complete hydrolysis: ≤ 0.042 days
[4]
  time of alkaline hydrolysis: 1 h

## O=C(O)/C(=N/O)P(=O)(O)O [Z-4]
[5]
  fragmentation product: cyanophosphonic acid
  stability at high pH: quite stable
[6]; d2o, pH 6
  half-life: ~5 min

From patent US5948931A (priority 1997, dated 1999)
